The target in the assay is T1, PAC (puromycin N-acetyltransferase) (Streptomyces alboniger, UniProt P13249).
T1 construct: native full-length pac amplified from pBABE-puro, N-terminal His6-tag (pET43a), expressed in E. coli BL21(DE3); IMAC and Superdex 75; tag removal not mentioned
The assay can be described thus: X-ray crystal structure. The assay is classed as binding.

Setting [1] is: crystals grown with 2 mM AcCoA and 2 mM puromycin, pH 8.26, trapped reaction product.

T1 sequence (P13249 whole entry): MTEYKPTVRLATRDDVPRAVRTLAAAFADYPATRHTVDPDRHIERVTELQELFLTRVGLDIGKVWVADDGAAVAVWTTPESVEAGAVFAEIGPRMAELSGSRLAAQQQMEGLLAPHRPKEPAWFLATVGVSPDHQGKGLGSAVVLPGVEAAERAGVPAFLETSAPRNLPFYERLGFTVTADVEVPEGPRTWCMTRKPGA

Regarding `CC(C)(COP(=O)(O)OP(=O)(O)OC[C@H]1O[C@@H](n2cnc3c(N)ncnc32)[C@H](O)[C@@H]1OP(=O)(O)O)[C@@H](O)C(=O)NCCC(=O)NCCS` [CoA], under setting [1], the X-ray crystal structure result was “The ligands modelled into this structure were CoA and N-acetylated puromycin”. With `COc1ccc(C[C@H](NC(C)=O)C(=O)N[C@H]2[C@@H](O)[C@H](n3cnc4c(N(C)C)ncnc43)O[C@@H]2CO)cc1` [N-acetylated puromycin], the X-ray crystal structure result under setting [1] was “The ligands modelled into this structure were CoA and N-acetylated puromycin”. Regarding `CC(=O)SCCNC(=O)CCNC(=O)[C@H](O)C(C)(C)COP(=O)(O)OP(=O)(O)OC[C@H]1O[C@@H](n2cnc3c(N)ncnc32)[C@H](O)[C@@H]1OP(=O)(O)O` [acetyl-CoA], where the note is “crystals with 0.1 mM AcCoA, pH 9.0, acetyl donor site”, the X-ray crystal structure result is “allowed the initial structure to be solved with AcCoA bound”.

The values above are taken from publication PMC7933286, “Structure-guided selection of puromycin N-acetyltransferase mutants with enhanced selection stringency for deriving mammalian cell lines expressing recombinant proteins” (Scientific Reports, 2021).
